Test systems include NCI-H23 lung; MALME-3M melanoma; UO-31 renal; A549 NSCLC; SF-539 CNS; HOP-62 NSCLC; RPMI-8226 leukemia; SR leukemia; SW-620 colon; NCI-H522 lung.
What all share (test): inhibition of tumour cell growth, NCI panel, 48 h

Here are results for 14 compounds from PubChem BioAssay (NCI).

Structures are written as SMILES.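 Following 48 hours of exposure in 96-well plates, responses at five concentrations were used to interpolate endpoints linearly. GI50 = concentration required for 50% inhibition of growth. TGI denotes the concentration required for complete inhibition of growth.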

For the compound `O=C1C=C(c2c(O)ccc3ccccc23)c2cc(O)ccc2C1=O`, the TGI with NCI-H23 lung was found to be 29.7 µM; in the assay with MALME-3M melanoma, 34.2 µM; in the assay on UO-31 renal it was 36.5 µM; in the assay on A549 NSCLC it was 36.7 µM; in the assay on SF-539 CNS, 39.3 µM; in the assay with HOP-62 NSCLC, 35.4 µM. The TGI in the assay on RPMI-8226 leukemia was greater than 100 µM; with SR leukemia, 42.9 µM; with SW-620 colon, 34.3 µM.
With `CCOc1ccc(NC(=O)CC2SC(=Nc3ccc(C)cc3C)NC2=O)cc1` (centres undefined), the TGI is greater than 100 µM in the assay on NCI-H23 lung; greater than 100 µM with MALME-3M melanoma; greater than 100 µM in the assay on UO-31 renal; greater than 100 µM in the assay on A549 NSCLC; 63.7 µM in the assay on SF-539 CNS; greater than 100 µM in the assay with RPMI-8226 leukemia. The TGI in the assay with SR leukemia, with NCI-H522 lung and in the assay on SW-620 colon was greater than 100 µM each time.
`CCC(C)(C)n1c(C)nc2c1C(=O)c1ccccc1C2=O`: the TGI in the assay with NCI-H23 lung was 60.4 µM; in the assay with MALME-3M melanoma, 86.7 µM; in the assay with UO-31 renal, 90.7 µM; in the assay on A549 NSCLC, greater than 100 µM; in the assay with SF-539 CNS, greater than 100 µM; with HOP-62 NSCLC, greater than 100 µM. Moreover, the TGI in the assay with SR leukemia was 42.7 µM; with NCI-H522 lung, 87.5 µM; with SW-620 colon, greater than 100 µM.
For the compound `c1ccc2c(c1)CCc1c(-c3ccncc3)n[nH]c1-2`, the TGI in the assay on NCI-H23 lung was 58.3 µM; in the assay on MALME-3M melanoma, greater than 100 µM; in the assay on A549 NSCLC it was greater than 100 µM; in the assay on SF-539 CNS it was greater than 100 µM; in the assay with HOP-62 NSCLC it was greater than 100 µM; in the assay on RPMI-8226 leukemia it was 84.2 µM. The figures for the TGI with SR leukemia and in the assay with SW-620 colon were 73.8 µM and greater than 100 µM, respectively.
Turning to `CC[C@@H]1NC(C(=O)OC)Cc2c1[nH]c1ccccc21` (some centres undefined), the TGI in the assay on NCI-H23 lung, with MALME-3M melanoma, in the assay on UO-31 renal, in the assay on A549 NSCLC, in the assay with SF-539 CNS and in the assay on SR leukemia was greater than 100 µM throughout. The compound also came in with a TGI in the assay on SW-620 colon greater than 100 µM.
Turning to `C/C(=N\NC(N)=O)c1sc(-c2nc(C)c(/C(C)=N/NC(N)=O)s2)nc1C`, the TGI in the assay with NCI-H23 lung, in the assay with MALME-3M melanoma, with UO-31 renal, in the assay on A549 NSCLC, in the assay on SF-539 CNS and in the assay with HOP-62 NSCLC was greater than 100 µM throughout. The TGI is greater than 100 µM in the assay with RPMI-8226 leukemia, 43.5 µM with SR leukemia and greater than 100 µM with NCI-H522 lung.
For `CC12c3ccccc3C(OC=O)(c3ccccc31)C1(C)c3ccccc3C2(OC=O)c2ccccc21`, the TGI in the assay with NCI-H23 lung, with MALME-3M melanoma, in the assay on UO-31 renal, in the assay on A549 NSCLC, in the assay on HOP-62 NSCLC and in the assay with RPMI-8226 leukemia was greater than 100 µM each time. Besides, the TGI is 48.6 µM in the assay on SR leukemia, greater than 100 µM in the assay on NCI-H522 lung and greater than 100 µM in the assay with SW-620 colon.
Regarding `CC(C)C1CN(C(=O)OCc2ccccc2)C2N1C(=O)C2(C)OCc1ccccc1` (centres undefined), the TGI with NCI-H23 lung is greater than 100 µM; with MALME-3M melanoma, greater than 100 µM; in the assay on UO-31 renal it was 68.8 µM; in the assay with A549 NSCLC it was greater than 100 µM; in the assay on SF-539 CNS, greater than 100 µM; in the assay on HOP-62 NSCLC, greater than 100 µM. Also, the figures for the TGI with RPMI-8226 leukemia, with SR leukemia and in the assay on SW-620 colon were 66.6 µM, 98 µM and greater than 100 µM, respectively.
`COc1c(C)c(OCC=C(C)C)cc(CO)c1CO`: the TGI with NCI-H23 lung, in the assay with A549 NSCLC, in the assay with SF-539 CNS, with HOP-62 NSCLC, in the assay on RPMI-8226 leukemia and in the assay on SR leukemia was greater than 100 µM in each case. The TGI with NCI-H522 lung and in the assay on SW-620 colon was greater than 100 µM each time.
With `CCN(CCNS(C)(=O)=O)c1ccc(N)c(C)c1`, the GI50 was 10.2 µM with MALME-3M melanoma; 2.58 µM with UO-31 renal; 25 µM in the assay with A549 NSCLC; 9.08 µM with SF-539 CNS; 16.2 µM in the assay on HOP-62 NSCLC; 3.16 µM with RPMI-8226 leukemia. In addition, the GI50 with SR leukemia was 5.14 µM; in the assay on NCI-H522 lung, 2 µM; in the assay on SW-620 colon it was 2.25 µM. The TGI in the assay with MALME-3M melanoma turned out to be 24.4 µM; in the assay on UO-31 renal, 7.67 µM; in the assay with A549 NSCLC, 51 µM; in the assay with SF-539 CNS, 21.6 µM; in the assay with HOP-62 NSCLC it was 31.1 µM; in the assay with RPMI-8226 leukemia, 8.32 µM. Also, the TGI in the assay on SR leukemia stood at 23.8 µM; in the assay on NCI-H522 lung, 3.46 µM; with SW-620 colon, 5.31 µM.
`O=C1c2cccc3cccc(c23)C(=O)N1CCN(CCO)CCO`: the TGI in the assay on NCI-H23 lung was 74.8 µM; in the assay with MALME-3M melanoma, 46.3 µM; in the assay with UO-31 renal it was greater than 100 µM; with A549 NSCLC, 70.7 µM; with SF-539 CNS, 86.5 µM; with HOP-62 NSCLC, greater than 100 µM. In addition, the TGI in the assay on RPMI-8226 leukemia was 56.4 µM; in the assay with SR leukemia, 44.9 µM; in the assay on SW-620 colon it was 46 µM.
As for `CN(C)CCNC(=O)Cc1ccccc1Nc1c(Cl)cccc1Cl`, the TGI in the assay with NCI-H23 lung came to 33.4 µM; in the assay on UO-31 renal, 25.6 µM; with A549 NSCLC, 36 µM; in the assay on SF-539 CNS it was 31.5 µM; with HOP-62 NSCLC it was 28.5 µM; with RPMI-8226 leukemia, 38.2 µM. The TGI was found to be 37.7 µM in the assay with SR leukemia and 34.5 µM with SW-620 colon.
`COc1ccc(-c2c(C#N)c(N3CCOCC3)nc3[nH]c(=S)[nH]c(=S)c23)cc1OC`: the GI50 with NCI-H23 lung was 20.9 µM; with UO-31 renal, 82.1 µM; in the assay on A549 NSCLC, greater than 100 µM; in the assay with SF-539 CNS, 39.1 µM; with HOP-62 NSCLC, 83.2 µM; with RPMI-8226 leukemia it was 9.74 µM. Also, the GI50 in the assay with SR leukemia is 11.5 µM; in the assay with NCI-H522 lung, greater than 100 µM; in the assay on SW-620 colon, 49.1 µM. The TGI in the assay on NCI-H23 lung is greater than 100 µM; in the assay on UO-31 renal, greater than 100 µM; with A549 NSCLC it was greater than 100 µM; in the assay on SF-539 CNS it was greater than 100 µM; in the assay on HOP-62 NSCLC it was greater than 100 µM; with RPMI-8226 leukemia it was 70.5 µM. Moreover, the TGI with SR leukemia, with NCI-H522 lung and with SW-620 colon was greater than 100 µM each time.
Consider `O=C(CNc1ccc(Cl)cc1Cl)Nn1c(-c2ccccc2)nc2ccccc2c1=O`, for which the TGI in the assay with NCI-H23 lung is 29.8 µM; in the assay on MALME-3M melanoma it was 34.6 µM; with UO-31 renal, 48.4 µM; with A549 NSCLC it was greater than 100 µM; with SF-539 CNS, 35.6 µM; with RPMI-8226 leukemia it was 71.3 µM. The TGI was greater than 100 µM in the assay with SR leukemia, 25.7 µM in the assay on NCI-H522 lung and 34.4 µM in the assay on SW-620 colon.
